Source: a compilation of properties of binary mixtures (doi:10.1016/j.jct.2017.01.014)

Test: xn = mol fraction of the nth substance listed
Details: 100 kPa

C=CN1CCCC1=O + CCCC[n+]1ccn(C)c1.O=S(=O)([N-]S(=O)(=O)C(F)(F)F)C(F)(F)F
speed of sound [m/s]
Details | x1 = 0.1377 | x1 = 0.2099 | x1 = 0.3148 | x1 = 0.4117 | x1 = 0.5061 | x1 = 0.6078 | x1 = 0.7032 | x1 = 0.79 | x1 = 0.8989 | x1 = 1
298.15 K | 1241.2 | 1249.4 | 1263 | 1278.3 | 1296.5 | 1321.4 | 1350.7 | 1384.6 | 1442.2 | –
303.15 K | 1229.8 | 1237.8 | 1251.1 | 1266.1 | 1283.9 | 1308.1 | 1336.6 | 1369.6 | 1425.6 | 1502.5
308.15 K | 1218.5 | – | – | 1253.8 | 1271.2 | 1294.7 | 1322.7 | 1354.8 | 1409.1 | 1483.7
313.15 K | 1207.3 | – | 1227.5 | 1241.7 | – | 1281.5 | 1308.7 | 1340 | 1392.8 | 1465
318.15 K | – | 1203.6 | – | 1229.7 | 1246.1 | 1268.4 | 1294.9 | 1325.3 | 1376.5 | –
323.15 K | 1185.3 | – | – | 1217.8 | 1233.8 | 1255.4 | 1281.1 | 1310.5 | 1360.3 | 1428.1

CCCC[n+]1ccn(C)c1.O=S(=O)([N-]S(=O)(=O)C(F)(F)F)C(F)(F)F + C=CN1CCCC1=O
x2 = 0
Details | speed of sound [m/s]
298.15 K | 1227.9
303.15 K | 1216.8
308.15 K | 1205.8
313.15 K | 1195
318.15 K | 1184.2
323.15 K | 1173.6
